Some test systems named below: M14; SK-OV-3; HCT-116; 786-0; SK-MEL-28; MDA-MB-435; HT-29; BT-549; COLO 205; RPMI-8226; K562; HOP-62; T47D; HL-60; DU-145; SF-268; NCI-H460; SF-539; Malme-3M.
Holding throughout (experiment): NCI anticancer screen, dose series, 48 h

Molecules are shown by their SMILES.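 96-well plates; 48 h exposure; 5 concentrations. Endpoints by linear interpolation between flanking doses. Not reached: highest tested concentration assigned. The concentration for 50% growth inhibition is given as GI50.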 Active and inactive are the calls of the source. Rule as the data show it: active = GI50 up to about 1.1 µM and inactive = higher.

For the compound `Brc1ccc(-c2ccc(-c3ccc(-c4ccc(Br)s4)s3)s2)s1`, the GI50 in the experiment with M14, with SK-OV-3, in the experiment on HCT-116, in the experiment on 786-0, in the experiment on SK-MEL-28 and in the experiment with MDA-MB-435 was > 100 µM (inactive) in each case. In addition, the GI50 with HT-29, in the experiment with BT-549, in the experiment on COLO 205, in the experiment on RPMI-8226, with K562 and in the experiment with HOP-62 was > 100 µM (inactive) throughout. The GI50 in the experiment on T47D, in the experiment with HL-60, in the experiment with DU-145, in the experiment on SF-268, in the experiment with NCI-H460 and with SF-539 was > 100 µM (inactive) throughout.
Take `C#CCn1c(=O)c(I)cn(/C(=C/C(=O)OCC)C(=O)OCC)c1=O`: the GI50 in the experiment with M14 is 1.78 µM (inactive); in the experiment with SK-OV-3, 17.9 µM (inactive); in the experiment on HCT-116, 1.85 µM (inactive); in the experiment on 786-0, 1.63 µM (inactive); with SK-MEL-28, 8 µM (inactive); in the experiment on MDA-MB-435, 7.6 µM (inactive). Also, the GI50 in the experiment on HT-29 is 12.6 µM (inactive); in the experiment on BT-549, 11.5 µM (inactive); in the experiment with COLO 205, 0.667 µM (active); in the experiment with RPMI-8226 it was 0.746 µM (active); in the experiment with K562, 0.659 µM (active); in the experiment on HOP-62, 17.5 µM (inactive). The GI50 in the experiment with T47D was 0.818 µM (active); with HL-60 it was 1.64 µM (inactive); in the experiment on DU-145, 10 µM (inactive); with SF-268 it was 9.44 µM (inactive); in the experiment on Malme-3M, 1.52 µM (inactive); in the experiment on NCI-H460, 23.4 µM (inactive). In the experiment with SF-539, the GI50 was 7.21 µM (inactive).
Take `NCCCNC1(c2cc3ccccc3s2)CCCCC1`: the GI50 in the experiment on M14 is 1.8 µM (inactive); with SK-OV-3, 13.5 µM (inactive); in the experiment on HCT-116, 2.06 µM (inactive); in the experiment on 786-0, 2 µM (inactive); with SK-MEL-28, 2.12 µM (inactive); in the experiment with MDA-MB-435, 1.94 µM (inactive). Moreover, the GI50 is 2.95 µM (inactive) in the experiment with HT-29; 13.8 µM (inactive) with BT-549; 1.84 µM (inactive) in the experiment with COLO 205; 1.91 µM (inactive) with RPMI-8226; 1.85 µM (inactive) with K562; 10.7 µM (inactive) in the experiment with HOP-62. The GI50 is 2.58 µM (inactive) in the experiment on T47D; 2.64 µM (inactive) in the experiment with HL-60; 12 µM (inactive) in the experiment on DU-145; 9.93 µM (inactive) in the experiment with SF-268; 1.88 µM (inactive) in the experiment with Malme-3M; 1.94 µM (inactive) in the experiment on NCI-H460. In addition, in the experiment with SF-539, the GI50 was 2.38 µM (inactive).
`CCOC(=O)C1(C(=O)OCC)[C@H](c2ccccc2)C2=NO[C@@H]3CCC[C@H]1[C@H]23`: the GI50 in the experiment on M14 is 36 µM (inactive); in the experiment with SK-OV-3, 30.1 µM (inactive); with HCT-116 it was 54.1 µM (inactive); in the experiment on 786-0 it was 82.2 µM (inactive); in the experiment with SK-MEL-28, > 100 µM (inactive); in the experiment on MDA-MB-435 it was 21.4 µM (inactive). The GI50 in the experiment on HT-29 is 35.8 µM (inactive); in the experiment on BT-549, 44.8 µM (inactive); with COLO 205 it was 33 µM (inactive); in the experiment on RPMI-8226, 14.6 µM (inactive); in the experiment with K562, 21.3 µM (inactive); in the experiment with HOP-62 it was 20.5 µM (inactive). Further, the GI50 in the experiment on T47D was 26.5 µM (inactive); in the experiment on HL-60, 33.8 µM (inactive); in the experiment with DU-145 it was > 100 µM (inactive); in the experiment on SF-268, > 100 µM (inactive); in the experiment on Malme-3M, > 100 µM (inactive); with NCI-H460, 60.5 µM (inactive). Moreover, in the experiment with SF-539, the GI50 was > 100 µM (inactive).
Regarding `CCC(=O)NC(Nc1cc(C)on1)(C(F)(F)F)C(F)(F)F`, the GI50 in the experiment with M14, in the experiment with SK-OV-3, in the experiment with HCT-116, in the experiment on 786-0, in the experiment on SK-MEL-28 and in the experiment with MDA-MB-435 was > 100 µM (inactive) throughout. In addition, the GI50 with HT-29, in the experiment with BT-549, in the experiment with RPMI-8226, with K562, with HOP-62 and in the experiment with T47D was > 100 µM (inactive) in each case. The GI50 in the experiment with HL-60, in the experiment with DU-145, in the experiment with SF-268, in the experiment with Malme-3M, in the experiment on NCI-H460 and in the experiment with SF-539 was > 100 µM (inactive) throughout.
As for `Cn1c(=O)n2n(c1=O)Cc1cccc3cccc(c13)C2`, the GI50 with M14, in the experiment with SK-OV-3, with HCT-116, with 786-0, in the experiment with SK-MEL-28 and in the experiment on MDA-MB-435 was > 100 µM (inactive) throughout. Moreover, the GI50 in the experiment on HT-29, in the experiment on BT-549, with COLO 205, in the experiment on RPMI-8226, with K562 and in the experiment with T47D was > 100 µM (inactive) throughout. Besides, the GI50 is 1.82 µM (inactive) with HL-60; > 100 µM (inactive) in the experiment with DU-145; > 100 µM (inactive) in the experiment on SF-268; > 100 µM (inactive) with Malme-3M; > 100 µM (inactive) with NCI-H460; > 100 µM (inactive) in the experiment with SF-539.
For `COc1ccc2nc3cc(Cl)ccc3c(NCCCNCc3cc(OC)c(OC)c(OC)c3)c2c1`, the GI50 in the experiment on M14 is 1.65 µM (inactive); in the experiment with SK-OV-3, 1.81 µM (inactive); with HCT-116, 1.24 µM (inactive); in the experiment on 786-0 it was 1.4 µM (inactive); in the experiment with SK-MEL-28, 1.67 µM (inactive); with MDA-MB-435, 1.82 µM (inactive). Further, the GI50 with HT-29 was 1.01 µM (active); in the experiment on BT-549 it was 1.76 µM (inactive); in the experiment on COLO 205, 1.31 µM (inactive); in the experiment with RPMI-8226 it was 1.53 µM (inactive); in the experiment with K562, 0.465 µM (active); with HOP-62, 1.32 µM (inactive). Further, the GI50 in the experiment with T47D was 1.89 µM (inactive); with HL-60 it was 0.895 µM (active); in the experiment with DU-145, 1.7 µM (inactive); in the experiment on SF-268 it was 1.67 µM (inactive); with Malme-3M it was 2.23 µM (inactive); in the experiment with NCI-H460 it was 1.64 µM (inactive). In addition, the GI50 with SF-539 is 1.87 µM (inactive).
Turning to `CC(=O)OC[C@]1(C(=O)C(O)c2ccoc2)[C@H](C)CC[C@@]23COC(=O)C2=CCC[C@@H]31` (stereo not given in full), the GI50 with M14, with SK-OV-3, in the experiment with HCT-116, with 786-0, in the experiment with MDA-MB-435 and in the experiment with HT-29 was > 10 µM (inactive) in each case. Besides, the GI50 with BT-549, in the experiment on COLO 205, in the experiment on RPMI-8226, with T47D, in the experiment on HL-60 and in the experiment with DU-145 was > 10 µM (inactive) in each case. The GI50 with SF-268, in the experiment on NCI-H460 and in the experiment with SF-539 was > 10 µM (inactive) each time.
For the compound `COC(=O)C1C2CCCN2OC1(C)CO` (stereo not given), the GI50 with M14, in the experiment with SK-OV-3, with HCT-116, in the experiment with 786-0, with SK-MEL-28 and with MDA-MB-435 was > 100 µM (inactive) throughout. For the same compound, the GI50 in the experiment on HT-29, with BT-549, in the experiment on COLO 205, in the experiment on RPMI-8226, in the experiment with K562 and with HOP-62 was > 100 µM (inactive) throughout. Besides, the GI50 in the experiment with T47D, in the experiment on HL-60, in the experiment with DU-145, in the experiment with SF-268, in the experiment on NCI-H460 and in the experiment with SF-539 was > 100 µM (inactive) throughout.
As for `COC(=O)c1c(O)ccc2[nH]c3c(O)c4ccccc4cc3c12`, the GI50 was 30.2 µM (inactive) in the experiment on M14; 33.6 µM (inactive) in the experiment on SK-OV-3; 16.7 µM (inactive) in the experiment on HCT-116; 32 µM (inactive) with 786-0; 35 µM (inactive) with SK-MEL-28; 27.9 µM (inactive) in the experiment on MDA-MB-435. Besides, the GI50 in the experiment on HT-29 is 33.3 µM (inactive); with BT-549, 39.3 µM (inactive); in the experiment with COLO 205, 18.3 µM (inactive); with RPMI-8226, 17.4 µM (inactive); in the experiment with K562 it was 47 µM (inactive); with HOP-62, 22.4 µM (inactive). Besides, the GI50 in the experiment on T47D was 15.1 µM (inactive); with HL-60, 14.1 µM (inactive); with DU-145, 20 µM (inactive); in the experiment with SF-268, 21.9 µM (inactive); with Malme-3M, 20.2 µM (inactive); in the experiment on NCI-H460, 24.1 µM (inactive). Moreover, the GI50 with SF-539 was 21.4 µM (inactive).
For `COC(=O)C12CCC(C(F)(F)C1=O)C2(C)C` (stereo not given), the GI50 in the experiment on M14, in the experiment on SK-OV-3, in the experiment with HCT-116, in the experiment on 786-0, with SK-MEL-28 and in the experiment on MDA-MB-435 was > 100 µM (inactive) throughout. Further, the GI50 in the experiment with HT-29, in the experiment on BT-549, in the experiment with COLO 205, in the experiment with RPMI-8226, in the experiment on HOP-62 and in the experiment with T47D was > 100 µM (inactive) each time. For the same compound, the GI50 with HL-60, in the experiment on DU-145, in the experiment with SF-268, in the experiment on Malme-3M, with NCI-H460 and with SF-539 was > 100 µM (inactive) throughout.

Values taken from ChEMBL document CHEMBL1201862, “PubChem BioAssay data set” (2004).
